Reference: patent US8729084B2, “Benzofuranyl analogues as GPR119 modulators” (Bristol-Myers Squibb Company, priority 2010, dated 2014)

What follows are compounds tested against T1, chimeric human/mouse GPR119 (Homo sapiens, UniProt Q8TDV5, A235T/C313R/C323Y/E253K/F304I/F307L/G211A/G245S/H255C/K284R/L224V/L258Q/L288Q/L301F/P218V/P318T/Q252H/R262K/S214P/S219N/S228A/S309P/S322A/T217S/T239S/V227I/V300F) (assay: Tet-inducible cAMP assay (cAMP accumulation, HTRF)). Conditions: not given.
T1 construct: the first 198 amino acids of human GPR119; the C-terminal 137 amino acids of the mouse receptor; expressed in transfected cells
T1 sequence (Q8TDV5 with tags, fused parts or gaps G211A/S214P/T217S/P218V/S219N/L224V/V227I/S228A/A235T/T239S/G245S/Q252H/E253K/H255C/L258Q/R262K/K284R/L288Q/V300F/L301F/F304I/F307L/S309P/C313R/P318T/S322A/C323Y): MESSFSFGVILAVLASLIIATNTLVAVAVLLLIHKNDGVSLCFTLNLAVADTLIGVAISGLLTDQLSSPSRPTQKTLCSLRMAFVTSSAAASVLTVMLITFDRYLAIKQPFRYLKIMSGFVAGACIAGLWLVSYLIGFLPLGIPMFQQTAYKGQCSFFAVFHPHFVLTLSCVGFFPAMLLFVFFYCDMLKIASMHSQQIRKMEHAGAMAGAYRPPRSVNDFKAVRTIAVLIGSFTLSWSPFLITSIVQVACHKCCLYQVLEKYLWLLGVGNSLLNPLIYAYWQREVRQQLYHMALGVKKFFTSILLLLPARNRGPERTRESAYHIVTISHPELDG
Format: cell-based
Method: The in vitro modulation of recombinant human GPR119 was determined as follows.
A human-mouse chimeric GPR119 expression construct encoding 3 copies of the FLAG epitope tag, the first 198 amino acids of human GPR119 and the C-terminal 137 amino acids of the mouse receptor was cloned into a tetracycline inducible vector pcDNA5/FRT/TO (Invitrogen #V6520-20), which includes a hygromycin-resistance marker. Tightly controlled receptor expression was achieved by stable integration of this construct into the genome of a specific host cell line, Flp-In-T-Rex-HEK293, expressing the tetracycline repressor (Invitrogen). Once a stable hygromycin-resistant cell line was generated, the cells were maintained at 37° C. in a humidified 5% CO2 atmosphere in culture medium consisting of Dulbecco's modified Eagle's medium (DMEM; Invitrogen #11960) supplemented with 2 mM L-glutamine, 10% fetal bovine serum, 200 μg/ml hygromycin B, and 15 μg/ml blasticidin.
Forty-eight hours prior to the cAMP accumulation assay, cells stably expressing the chimeric human/mouse GPR119 construct were seeded at a density of 4×10^3 cells/well in 384 well poly-D-lysine coated solid white plates (BD #35-6661) and grown at 37° C. in a humidified 5% CO2 atmosphere in culture medium supplemented with 1 μg/ml tetracycline to induce expression of the receptor. On the day of the assay, medium was removed and cells were incubated for 50 min. at 37° C. in a humidified 5% CO2 atmosphere in 20 μl/well of assay buffer (phosphate-buffered saline with Ca^2+ and Mg^2+, 12 mM glucose, 0.1 mM isobutyl-methyl-xanthine, 0.1% fatty-acid free bovine serum albumin) with the desired concentration of compound added from a concentrated stock dissolved in dimethyl sulfoxide (DMSO) to give a final concentration of 1% DMSO in the assay. cAMP accumulation was measured using the CisBio homogeneous time resolved fluorescence (HTRF) assay kit (#62AM2PEC) following the manufacturer's protocol. Briefly, 10 μl each of the cAMP-HTRF fluorescence detection reagents were added to each well, and the samples were incubated for 40 min. at room temperature. Fluorescence was excited at 320 nm and measured at 665 and 620 nm using the Envision instrument (Perkin Elmer), the fluorescence ratio of 665/620 was calculated and converted to nanomolar concentrations of cAMP in each well by interpolation from a cAMP standard curve. The concentration-response curves and EC50 values were calculated with a four parameter logistic curve fit equation utilizing Excel/XLfit software (Microsoft and IDBS). The EC50 value was calculated as the concentration of agonist which increased the cAMP concentration to a value halfway between the baseline and the maximum.
Compounds of the present invention were tested in the Tet-inducible cAMP assay described immediately above and the results shown in Table 2 below were obtained.
`CCCc1cnc(N2CCC(C3Cc4cc(C5=CCN(S(=O)(=O)CCC)CC5)cc(F)c4O3)CC2)nc1` (racemic) [Example 5, (±)-2-(4-(7-Fluoro-5-(1-(propylsulfonyl)-1,2,3,6-tetrahydropyridin-4-yl)-2,3-dihydrobenzofuran-2-yl)piperidin-1-yl)-5-propylpyrimidine] gave an EC50 of 0.0618 µM. `CCCc1cnc(N2CCC(C3Cc4cc(C5=CCN(S(=O)(=O)CCCCO)CC5)cc(F)c4O3)CC2)nc1` (stereo not drawn) [Example 4, 4-(4-(7-Fluoro-2-(1-(5-propylpyrimidin-2-yl)piperidin-4-yl)-2,3-dihydrobenzofuran-5-yl)-5,6-dihydropyridin-1(2H)-ylsulfonyl)butan-1-ol] showed an EC50 of 0.168 µM. `CCCc1cnc(N2CCC(C3Cc4cc(N5CCN(S(=O)(=O)CCC)CC5)ccc4O3)CC2)nc1` (stereo not drawn) [Example 9, 5-Propyl-2-(4-(5-(4-(propylsulfonyl)piperazin-1-yl)-2,3-dihydrobenzofuran-2-yl)piperidin-1-yl)pyrimidine] was tested, and the EC50 was 1.06 µM. `CCCS(=O)(=O)N1CC=C(c2ccc3c(c2)CC(C2CCN(C(=O)OC4CCCCC4)CC2)O3)CC1` (stereo not drawn) [Example 44] showed an EC50 of 0.0097 µM.

Same assay, conditions: Flp-In-T-Rex-HEK293 cells, tetracycline-induced receptor expression; cAMP accumulation after 50 min at 37° C.; read-out: GPR119 EC50
For `CC1(C2CCN(c3ncc(C4CC4)cn3)CC2)Cc2cc(C3=CCN(S(=O)(=O)CCCCO)CC3)ccc2O1` (stereo not drawn) [Example 11, 4-(4-(2-(1-(5-Cyclopropylpyrimidin-2-yl)piperidin-4-yl)-2-methyl-2,3-dihydrobenzofuran-5-yl)-5,6-dihydropyridin-1(2H)-ylsulfonyl)butan-1-ol], the EC50 was 0.0089 µM. For `CCCS(=O)(=O)N1CCC(C2Cc3cc(C4=CCN(S(C)(=O)=O)CC4)ccc3O2)CC1` (stereo not drawn) [Example 21], the EC50 was 2.43 µM. Compound `CCCS(=O)(=O)N1CC=C(c2cc(F)c3c(c2)CC(C2CCN(c4ncc(Cl)cn4)CC2)O3)CC1` (stereo not drawn) [Example 39] has an EC50 of 0.0031 µM. For `CC(C)CS(=O)(=O)N1CC=C(c2cc(F)c3c(c2)CC(C2CCN(c4ncc(Cl)cn4)CC2)O3)CC1` (stereo not drawn) [Example 40], the EC50 was 0.0034 µM. Compound `CCCS(=O)(=O)N1CC=C(c2ccc3c(c2)CC(C2CCN(c4ccc(Cl)cn4)CC2)O3)CC1` (stereo not drawn) [Example 41] has an EC50 of 0.0827 µM.
